From patent US10717968B2, “Polymerases for nucleotide analogue incorporation” (Pacific Biosciences of California, Inc., priority 2005, dated 2020)

How the values were obtained:
Type in all cases: biochemical
[1] = tested on: A633dC4P; assay: Screening: rate with A633dC4P and dA, dG, dTTP; details: for Rate High: 25 μM A633dC4P with 20 μM dA; for Ratio (Low/High): (rate at 5 μM A633dC4P)/(rate at 25 μM A633dC4P), each with 20 μM dA, 1 mM MnCl2, higher ratio = lower Km
[2] = tested on: Alexa488-O-dA4P, FAM-Alexa532-O-dG4P, FAM-Alexa594-O-dT4P, Alexa633-O-dC4P; assay: Screening: rate with set of four nucleotide analogues; details: four analogues at 10 μM each, 1 mM MnCl2
[3] = tested on: dTTP, dATP, dGTP; assay: Assay with three native nucleotides (dGTP, dTTP and dATP); details: three native nucleotides at 20 μM; circular template, no G residues
Description: (§1) The Φ29 DNA polymerase (parental enzyme or mutant) was preincubated with DNA template (72 nucleotide circular DNA including mostly repetitive sequence AGTC) with annealed DNA primer. The preincubation mix includes three native nucleotides (dTTP, dATP and dGTP) and a terminal labeled nucleotide analogue (A488dC4P or A568dC4P) at 10 μM concentration. After a short preincubation, the reaction was started with MnCl2. The reaction was stopped with EDTA, and the products were separated using agarose gel electrophoresis and stained with SYBR Gold (Invitrogen). The average length of the DNA generated with DNA polymerase was determined and used to estimate the polymerization rate. See, e.g., Table 2 Columns G and H.
The Φ29 DNA polymerase (parental enzyme or mutant) was preincubated with DNA template (circular DNA including mostly repetitive sequence CAT, no G residues) with annealed DNA primer; the preincubation mix includes three native nucleotides (dTTP, dATP and dGTP). All subsequent steps were basically as described above in the section entitled “Assay with a single analogue at low concentration (10 μM) and three native nucleotides.” See, e.g., Table 2 Column B.

[4] = tested on: A488dC4P; assay: Nucleotide analogue concentration dependence of the polymerization rate, A488dC4P; details: circular AGTC template; dTTP, dATP, dGTP 20 μM each
Description: (§2) The most promising polymerase mutants are characterized by determination of the polymerization rate and Km for A488dC4P and A568dC4P and a subset of natural nucleotides (dATP, dGTP and dTTP), using a circular template (AGTC). Velocity is measured at several different concentrations of the analogs, A488dC4P (a representative good substrate) and A568dC4P (a representative less preferred substrate).
(§3) The Φ29 DNA polymerase (parental enzyme or mutant) was preincubated with a DNA template (72 nucleotide circular DNA including mostly repetitive sequence AGTC) with annealed DNA primer. The preincubation mix includes also three native nucleotides (dTTP, dATP and dGTP 20 μM each) and various concentrations of the terminally labeled analogue (A488dC4P or A568dC4P). All subsequent steps were basically as described above in the section entitled “Assay with a single analogue at low concentration (10 μM) and three native nucleotides.” An average length of the DNA products generated with DNA polymerase at an individual analogue concentration was determined, and the results were fitted with the equation k=kel*[S]*(Kd+[S])^−1 where k is the observed polymerization rate, kel is the polymerization rate at saturating substrate concentration (kel measures incorporation of multiple residues), and [S] is substrate concentration. See, e.g., Table 2 Columns C, D, E, and F.

[5] = tested on: A568dC4P; assay: Nucleotide analogue concentration dependence of the polymerization rate, A568dC4P; details: circular AGTC template; dTTP, dATP, dGTP 20 μM each
Description: as §2, §3

[6] = tested on: A488dC4P; assay: Assay with a single analogue at low concentration (10 μM) and three native nucleotides, A488dC4P; details: single analogue at 10 μM and three native nucleotides
Description: as §1

[7] = tested on: A568dC4P; assay: Assay with a single analogue at low concentration (10 μM) and three native nucleotides, A568dC4P; details: single analogue at 10 μM and three native nucleotides
Description: as §1

[8] = tested on: A488dA4P, A633dC4P, A546dG4P, A594dT4P; assay: Assay with four terminally labeled nucleotide analogs; details: four terminally labeled analogs all at 10 μM
Description: Polymerization rate (bases/min) with four analogues at 10 μM (A488dA4P, A633dC4P, A546dG4P and A594dT4P) and circular template (AGTC, a 72mer circular template largely consisting of a repeating AGTC motif) is determined.
The procedure is basically as described above in the section entitled “Assay with a single analogue at low concentration (10 μM) and three native nucleotides,” with the exception that in this assay all nucleotides are terminally labeled (A488dA4P, A633dC4P, A546dG4P, A594dT4P all at 10 μM). See, e.g., Table 2 Column I.

[9] = tested on: DNA template (72 nucleotide circular DNA) with annealed DNA primer; assay: Processivity assay; details: dNTP, MnCl2, heparin trap, 20 min; 1.0 minus Poff
Description: The processivity (dissociation/kb) of the polymerase is estimated in a primer extension reaction performed in the presence of “Trap” (unlabeled competitor DNA or heparin). The processivity assay is designed to select mutants that retain the capability to synthesize a long DNA product in a continuous polymerization run (without polymerization reinitiation) with natural nucleotides. Mutants with a significant decrease in processivity are not selected for the next step.
The Φ29 DNA polymerase (parental enzyme or mutant) was preincubated with DNA template (72 nucleotide circular DNA including mostly repetitive sequence AGTC) with annealed DNA primer. After a short preincubation, the reaction was started with a starting mix including MnCl2, dNTP and heparin. Including the heparin in the reaction prevents polymerization from reinitiating after the polymerase dissociates from the template/primer, so that all generated DNA products are a result of continuous polymerization runs. After 20 min incubation, the reaction was stopped with EDTA and the products were separated using agarose gel electrophoresis and stained with SYBR Gold (Invitrogen). The DNA products were analyzed basically as described in Bibillo A, Eickbush T H. J Biol Chem. 2002 Sep. 20; 277(38):34836-45, Epub 2002 Jul. 5. The results were fitted with single exponential equation A*exp(−Poff*kb) where A is amplitude, Poff is the probability of premature polymerase dissociation, and kb is DNA length (1000 nucleotides). The probability of chain elongation (processivity) can be readily calculated by subtracting the Poff value from 1.0. See, e.g., Table 2 Column J.

[10] = tested on: natural (native) nucleotides; assay: Initial characterization: specific activity with natural (native) nucleotides
Description: The recombinant polymerase is initially evaluated on the quality of the protein preparation and basic catalytic activity. The polymerase's activity is analyzed with natural (native) nucleotides, and its specific activity (units/mg) is determined. Only catalytically competent mutants are selected for the next steps.

[11] = tested on: Alexa633-O-dC4P; assay: Km and Vmax versus analogue Alexa633-O-dC4P; details: Alexa633-O-dC4P (A633dC4P)
Description: Km and Vmax were determined for exemplary recombinant Phi29 polymerases and various nucleotide analogues.

With “D12A: GST-His tagged Phi29 polymerase with exonuclease-reducing D12A mutation, no background mutation [reference compound]” the “Rate High” value [1] was 55.3, the “Ratio (Low/High)” value [1] was 0.888 and the “Hz Rate” value [2] was 1.2 Hz.

For “E375A: His-tagged Phi29 polymerase with E375A and background N62D mutation”, the “Rate High” value [1] was 465.9, the “Ratio (Low/High)” value [1] was 0.383 and the “Hz Rate” value [2] was 5.8 Hz.

For “E375Q: His-tagged Phi29 polymerase with E375Q and background N62D mutation”, the “Rate High” value [1] was 531.6, the “Ratio (Low/High)” value [1] was 0.356 and the “Hz Rate” value [2] was 6.3 Hz.

With “GST-N62D: GST-His-S tagged Phi 29 DNA polymerase with exonuclease-reducing N62D mutation (SEQ ID NO:2); parental enzyme [reference compound]” the “dTTP, dATP, dGTP (no G fork) V at 20 μM” value [3] was 780, the “A488dC4P, kel” value [4] was 1200 bp/min and the Km [4] was 20 µM. For the same substance, the “A568dC4P, kel” value [5] was 1660, the Km [5] was 74 µM and the “A488dC4P, V at 10 μM” value [6] was 346. For the same substance, the “A568dC4P, V at 10 μM” value [7] was 236, the “A488dA4P, A633dC4P, A546dG4P, A594dT4P, V at 10 μM” value (from here on “A488dA4P, A633dC4P, A546dG4P”) [8] was 65 and the Processivity [9] was 0.9799 kb^−1. The “Rate High” value [1] was 349.3, the “Ratio (Low/High)” value [1] was 0.355 and the “Hz Rate” value [2] was 2.8 Hz.

In the case of “His-E486A-N62D: His-tagged Phi 29 polymerase with E486A and N62D mutations (SEQ ID NOs:9, 30)”, the “Specific Activity” value [10] is reported as 4,133,000 units/mg, the “dTTP, dATP, dGTP (no G fork) V at 20 μM” value [3] is reported as 1690 and the “A488dC4P, V at 10 μM” value [6] is reported as 303. For the same substance, the “A568dC4P, V at 10 μM” value [7] was 118, the “A488dA4P, A633dC4P, A546dG4P” value [8] was 15 and the Processivity [9] was 0.9875 kb^−1. The “Rate High” value [1] was 152.5, the “Ratio (Low/High)” value [1] was 0.441 and the “Hz Rate” value [2] was 1.0 Hz.

For “His-E486D-N62D: His-tagged Phi 29 polymerase with E486D and N62D mutations (SEQ ID NOs:10, 31)”, the “Specific Activity” value [10] was 11,634,000 units/mg, the “A488dC4P, V at 10 μM” value [6] was 220 and the “A568dC4P, V at 10 μM” value [7] was 134. For the same substance, the “A488dA4P, A633dC4P, A546dG4P” value [8] was 15, the Processivity [9] was 0.9885 kb^−1 and the “Rate High” value [1] was 142.0. The “Ratio (Low/High)” value [1] was 0.467 and the “Hz Rate” value [2] was 0.9 Hz.

For “His-K135A-N62D: His-tagged Phi 29 polymerase with K135A and N62D mutations (SEQ ID NOs:3, 24)”, the “Specific Activity” value [10] was 12,454,000 units/mg, the “dTTP, dATP, dGTP (no G fork) V at 20 μM” value [3] was 840 and the “A488dC4P, kel” value [4] was 880 bp/min. For the same substance, the Km [4] was 24 µM, the “A488dC4P, V at 10 μM” value [6] was 292 and the “A568dC4P, V at 10 μM” value [7] was 154. For the same substance, the “A488dA4P, A633dC4P, A546dG4P” value [8] was 43, the Processivity [9] was 0.9801 kb^−1 and the “Rate High” value [1] was 272.0. For the same substance, the “Ratio (Low/High)” value [1] was 0.412 and the “Hz Rate” value [2] was 1.6 Hz.

In the case of “His-K512A-N62D: His-tagged Phi 29 polymerase with K512A and N62D mutations (SEQ ID NOs:11, 32)”, the “Specific Activity” value [10] is reported as 16,073,000 units/mg, the “A488dC4P, V at 10 μM” value [6] is reported as 359 and the “A568dC4P, V at 10 μM” value [7] is reported as 196. The “A488dA4P, A633dC4P, A546dG4P” value [8] was 34, the Processivity [9] was 0.9821 kb^−1 and the “Rate High” value [1] was 347.7. The “Ratio (Low/High)” value [1] was 0.335 and the “Hz Rate” value [2] was 1.4 Hz.

In the case of “His-N62D: His-tagged N62D Phi 29 DNA polymerase; parental enzyme [reference compound]”, the “dTTP, dATP, dGTP (no G fork) V at 20 μM” value [3] is reported as 750, the “A488dC4P, kel” value [4] is reported as 1020 bp/min and the Km [4] is reported as 21 µM. For the same substance, the “A488dC4P, V at 10 μM” value [6] was 391, the “A568dC4P, V at 10 μM” value [7] was 237 and the “A488dA4P, A633dC4P, A546dG4P” value [8] was 68. The Processivity [9] was 0.9754 kb^−1, the “Rate High” value [1] was 373.2 and the “Ratio (Low/High)” value [1] was 0.362. The “Hz Rate” value [2] was 2.7 Hz.

For “His-NipTuck_1-N62D: His-tagged N62D Phi 29 polymerase with deletion of residues 505-525 (SEQ ID NOs:12, 33)”, the “Specific Activity” value [10] was 12,400,000 units/mg, the “dTTP, dATP, dGTP (no G fork) V at 20 μM” value [3] was 660 and the “A488dC4P, kel” value [4] was 520 bp/min. The Km [4] was 24 µM, the “A488dC4P, V at 10 μM” value [6] was 153 and the “A568dC4P, V at 10 μM” value [7] was 116. For the same substance, the “A488dA4P, A633dC4P, A546dG4P” value [8] was 24, the Processivity [9] was 0.9585 kb^−1 and the “Rate High” value [1] was 192.4. For the same substance, the “Ratio (Low/High)” value [1] was 0.508 and the “Hz Rate” value [2] was 1.3 Hz.

For “L384R: His-tagged Phi29 polymerase with L384R and N62D mutations (SEQ ID NOs:8, 29)”, the “Rate High” value [1] was 79.6, the “Ratio (Low/High)” value [1] was 0.768 and the “Hz Rate” value [2] was −0 Hz.

With “N62D: E375K: Phi 29 polymerase with E375K and N62D mutations (SEQ ID NOs:6, 27)” the Km [11] was 12 µM, the “Rate High” value [1] was 516.1 and the “Ratio (Low/High)” value [1] was 0.425. For the same substance, the “Hz Rate” value [2] was 6.2 Hz.

With “T15I N62D: His-tagged Phi29 polymerase with T15I and background N62D mutation (Table 5 r22)” the “Rate High” value [1] was 105.9, the “Ratio (Low/High)” value [1] was 0.726 and the “Hz Rate” value [2] was 0.0 Hz.

With “T15I: His-tagged Phi29 polymerase with T15I mutation only, no background mutation (Table 5 r13)” the “Rate High” value [1] was 416.5, the “Ratio (Low/High)” value [1] was 0.355 and the “Hz Rate” value [2] was 3.0 Hz.
